# Measurements reported in a melting point compilation (Tetko et al.; mined from patent text by program, amines drawn as free bases though some values may be those of a salt).
row,Structure (SMILES),melting point
1,Cc1ccc(C2c3c(C)c(N4CCN(c5ccccn5)CC4)c(C)c(C)c3OC2(C)C)cc1 (centres undefined),190 to 191 °C
2,N#Cc1ccc(COc2ccc3ccccc3c2C=O)cc1,163 to 164 °C
3,CCC1(Cc2ncn(C(c3ccccc3)(c3ccccc3)c3ccccc3)c2C)CCc2c(C)c3ccccc3n2C1=O (centres undefined),83 to 98 °C
4,COc1ccccc1C(=O)c1ccc(OC)c(Cl)c1Cl,94 to 96 °C
5,c1ccc(-c2ccc3nncn3n2)nc1,191 to 192 °C
6,CC1CCCN(C(=O)c2ccc([N+](=O)[O-])cc2)C1 (centres undefined),70.2 to 71.3 °C
7,Cc1nc(-n2cc(-c3ccccn3)nn2)sc1C(=O)NCc1ccccc1,184 to 187 °C
8,CS(=O)(=O)c1ccc(Cl)cc1C1NC(=O)NC1=O (centres undefined),238 to 240 °C
9,OCCCc1nc(-c2ccc(Cl)cc2)co1,41 to 42 °C
10,CNc1nc(C(=O)O)ccc1C(=O)OC,152 to 153 °C
11,CCOc1ccc(CCCOc2nn(C)cc2CC(=O)O)c(Oc2ccc(Cl)cc2Cl)n1,81 to 83 °C
12,CCCCCCC(c1cccc(C(=O)NC(c2ccccc2)c2ccccc2)c1)c1nnn[nH]1 (centres undefined),198 to 200 °C
13,Oc1ccc2ccc(OCc3nc4ccccc4s3)cc2c1,205 to 207 °C
14,COc1cc2nc(N3CCN(C(=O)C4CC=CCC4)CC3)nc(N)c2cc1OC (centres undefined),211 to 213 °C
15,COc1cc2c(=O)c(S(C)=O)cn(C)c2cc1F (centres undefined),263 to 264 °C
16,C[Si](C)(C)c1cn(Cc2ccc(C#N)cc2)nn1,83 °C
17,Nc1ccccc1C(=O)Nc1ccc(Br)cc1,139 to 144 °C
18,COC1=CCCSC1c1cc(N2C(=O)C3=C(CCCC3)C2=O)ccc1Cl (centres undefined),116 to 119 °C
19,CCCCOC(=O)CNC(=O)c1ncc(C(=O)OCCCC)cc1OC,80 to 81 °C
20,NCc1nc2ccccc2o1,46.5 to 47.5 °C
21,CCOC(=O)c1nsc(-c2ccc(C)cc2)n1,65 to 66.5 °C
22,CN(C)c1ncc(O)c(-c2ccc(Cl)c(Cl)c2)n1,188 to 189 °C
23,CCc1nn(CO)c(CC)c1Cc1cc(Cl)cc(Cl)c1,117 to 118 °C
24,CC1=C(C(=O)c2ccccc2F)C(=O)C2C=CC=CC2C1=O (centres undefined),157 to 158 °C
25,COc1c(Cl)ccc(Cl)c1C(=O)NN,144 to 145 °C
26,C=Cc1ccc(C(=O)OC(C)(C)C)c(C#N)c1,51 to 53 °C

row,Structure (SMILES),melting point
1,O=C(CCl)Nc1ccc2c(c1NC(=O)c1ccno1)C(=O)c1ccccc1C2=O,212 to 213 °C
2,Cc1c(C(=O)c2sc(Nc3ccc(S(N)(=O)=O)cc3)nc2N)ncn1C,293 to 294 °C
3,Cn1cnnc1C(O)(c1ccc(I)cc1)c1ccc2c(c1)c(-c1cccc(Cl)c1)nc1nnnn12 (centres undefined),228 °C
4,CN1CC=CC(c2cc3ccccc3o2)C1 (centres undefined),63 °C
5,CC(C(=O)O)c1ccc(-c2ccc(OCc3nc4ccccc4s3)cc2)cc1 (centres undefined),199 to 200 °C
6,CCOC(=O)c1c(SC)nc(-c2ccc(SC)cc2)n(-c2ccc(C)cc2)c1=O,153 to 155 °C
7,CN(C)C(=O)n1oc(CCl)c(Cl)c1=O,107 to 108 °C
8,CCc1nc2cnc3cc(O)ccc3c2n1CC(C)C,> 250 °C
9,C#CCOC(=O)c1cc(-n2c(=O)cc(C)n(C)c2=O)c(F)cc1C#N,174 to 177 °C
10,Cc1ccc(N(C)C(=O)CN(C(=O)CNC(=O)Nc2cccc(C)c2)c2ccccc2)cc1,162 °C
11,CCCCCCc1c(C(C)C)nc(C(C)C)c(C(C)O)c1-c1ccc(F)cc1 (centres undefined),75 to 77 °C
12,Cc1ccc(-c2nc3sc4ccccc4n3c2CC(=O)O)s1,255 to 259 °C
13,CCC(CC)Oc1ccc(-n2cc(C(=O)O)cn2)cc1C#N,142 to 144 °C
14,COc1ccc(-c2nc(SCCCCCc3nc4ccccc4[nH]3)[nH]c2-c2ccc(OC)cc2)cc1,85 to 86 °C
15,N#CC(C#N)=Cc1ccc(O)c(O)c1,225 °C
16,CON=CC1=CCCN(C(=O)OCCc2ccc([N+](=O)[O-])cc2)C1,93 to 94 °C
17,O=C(O)Cc1cc([N+](=O)[O-])ccc1Sc1cccc(Br)c1,123 to 125 °C
18,c1cc2cc(-c3nnn[nH]3)ccc2[nH]1,205 °C
19,CCCCOc1ccc(NC(=O)CNc2ccccc2F)cc1,92 to 94 °C
20,Cc1ccc(C(=O)c2cccnc2C(=O)O)cc1,168 to 170 °C
21,O=C(Nc1ccc(NCc2ccccc2)cc1)C(=O)N1CCC(Cc2ccc(F)cc2)CC1,145 to 148 °C
22,O=C1COc2cc(F)c(F)cc2N1,214 to 219 °C
23,NC(=O)N(O)CCNC(=O)c1cccc(Oc2cc(Cl)cc(Cl)c2)c1,164 to 166 °C
24,CC(=N)NN(C)C(=O)OC(C)(C)C,187 to 189 °C
25,CN1CSC(=Cc2ccc(O)c(C(C)(C)C)c2)C1=O,> 230 °C
26,COc1c(-c2cc3c(s2)CCC(CO)C3)ccc2c(=O)c(C(=O)O)cn(C3CC3)c12 (centres undefined),218 to 219 °C

row,Structure (SMILES),melting point
1,CNC(=NC#N)NCc1ncc(-c2csc(N=C(N)N)n2)s1,258 to 259 °C
2,CCC(S)=C1SC(=S)N(c2ccc(Cl)cc2)C1=O,163 to 165 °C
3,CC1(C)OC(=O)N[C@H]1Cc1ccccc1,59 °C
4,COC(=O)c1sc(-c2ccc(C)cc2)cc1NC(C)=O,127 to 129 °C
5,COc1ccccc1NC(=O)Nc1ccc(CC(=O)NC(CC(C)C)c2ncc(CCC(=O)O)s2)cc1 (centres undefined),197 to 198 °C
6,Cn1ccc2cc(/C=C/C3=CCN(Cc4ccccc4)CC3)ccc21,138 °C
7,CC1=C(C#N)C(c2cncc3ncc(-c4ccccc4)cc23)C(C(=O)OC(C)C)=C(C)N1 (centres undefined),192 °C
8,CC(C)(C)NC(=O)[C@@H]1C[C@H](Sc2ccccc2)CN1C(=O)OC(C)(C)C,119 to 121 °C
9,CCCCc1oc2ccccc2c1-c1ncc(-c2ccc3cc(OC(Cc4ccccc4)C(=O)OC)ccc3c2)o1 (centres undefined),122 to 124 °C
10,O=C(NC1CCCCC1)NS(=O)(=O)c1ccc(CCNC(=O)N2Cc3ccccc3C2=O)cc1,211 to 213 °C
11,CCOC(=O)C1(C)C(=O)Nc2cc(NC(=O)c3ccncc3)c([N+](=O)[O-])cc21 (centres undefined),217 to 219 °C
12,CC(C)OC(=O)N1CCN(c2ccn3ncc(Br)c3n2)CC1,78 to 79 °C
13,COc1cc(CC2COC(c3ccc(O)c(OC)c3)C2CO)ccc1O (centres undefined),169 to 171 °C
14,COc1ccccc1C(c1ccccc1)c1cccc(-c2ccccc2)c1O (centres undefined),120 °C
15,O=C(Nc1ccc2[nH]ccc2c1)c1ccc(F)cc1,205 to 207 °C
16,Cc1ccc(C(=O)c2cnn3c(-c4cccnc4)ccnc23)cc1,203 to 204 °C
17,O=C(O)c1ccc(CCCC2SCC(=O)N2CCC2(O)CCCCC2)s1 (centres undefined),122 to 123 °C
18,COc1cc2c(cc1Nc1ncc(Cl)c(N[C@H]3[C@@H](C(N)=O)[C@@H]4C=C[C@H]3C4)n1)CCN(CC(=O)N1CCCC1)CC2,126 to 145 °C
19,CCCCCCCCCCCC(=O)O[C@H](CCCCCCCCCCC)CC(=O)N[C@@H](CO)C(=O)OCc1ccccc1,53 to 54 °C
20,O=C(NCc1ccccc1)c1ccccc1-c1ccccc1CNS(=O)(=O)c1cccc([N+](=O)[O-])c1,175 °C
21,COC(=O)C(CCC(C(=O)OC)c1cc(OC)c(OC)c(OC)c1)c1cc(OC)c(OC)c(OC)c1 (centres undefined),179 to 184 °C
22,CCCCc1ccc(C#CC(C)N(O)C(N)=O)s1 (centres undefined),104 to 106 °C
23,COc1nc(O)nn1C(C)C,102 to 103 °C
24,Fc1ccc(-c2cc3c(cc2Br)OCO3)cc1,86 to 87.5 °C
25,CCCCCCCCCCCCCCCC(=O)CSC,38 to 40 °C
26,COc1cccc(C(=O)NCCCCCCCNC(=O)c2cccc(OC)c2)c1,109 to 112 °C

row,Structure (SMILES),melting point
1,O[C@H](CCc1cccnc1)COc1ccc(-c2nnco2)cc1,130 to 133 °C
2,Cc1c(/C=C/C(=O)N(C)C)ncn1C(c1ccccc1)(c1ccccc1)c1ccccc1,195 to 197 °C
3,O=C1C2=NCCCN2c2ccc(Br)cc21,166 to 168 °C
4,CCOC(=O)c1cc2ccc(OC)cc2n1CCNC(C)=O,159 to 160 °C
5,COCCOC(=O)Nc1cccc(C)c1COc1cccn2c(C=O)c(C)nc12,119 to 120 °C
6,Cn1ncnc1COc1nn2c(-c3cc(CF)on3)nnc2c2ccccc12,250 to 252 °C
7,COc1cc(C(=O)CS(=O)(=O)N(C)C)c(N)cc1Cl,59 to 62 °C
8,O=C(C=CC=Cc1ccccc1)c1cccc([N+](=O)[O-])c1,58 to 60 °C
9,O=C(O)Cc1ccc2c3ccccc3n(Cc3ccccc3)c2c1,149 to 150 °C
10,CN(Cc1cccc2c1CN(C1CCC(=O)NC1=O)C2=O)C(=O)Nc1cccc(F)c1 (centres undefined),218 to 220 °C
11,COc1ccc(-n2nc(CCC(=O)N(C)O)cc2-c2ccc(F)cc2)cc1,151 to 154 °C
12,CC(=O)N1Cc2c(-c3noc(C4CC4)n3)ncn2-c2cccc(F)c21,208 to 210 °C
13,O[C@@H](CNCCOc1ccc2oc(-c3noc(C(F)(F)F)n3)cc2c1)c1cccc(Cl)c1,108 to 111 °C
14,COC(=O)COc1ccc(C[C@H](NC(=O)OC(C)(C)C)C(=O)O)cc1,75 to 79 °C
15,CNC(=O)C(N)Cc1ccc2ccccc2c1 (centres undefined),127 to 128 °C
16,CCOC(C)n1c(C)nc(-c2ccccc2)c1-c1ccccc1 (centres undefined),87 to 89 °C
17,CCc1nc2cc(Cl)c(S(N)(=O)=O)cc2[nH]1,240 to 242 °C
18,COc1ccc(N2CCCn3c2nc2c(Cl)ccc(C(OCC(F)F)C4CC4)c23)c(C)n1 (centres undefined),124 to 126 °C
19,COc1cc(OCCCCc2cn(-c3ccc(C(F)(F)F)cn3)nc2C(C)C)ccc1CCC(=O)O,125 to 126 °C
20,C[C@@H](N)C(=O)N(O)C(=O)OC(C)(C)C,115 to 117 °C
21,CCCn1nnn(-c2cc(C)c(Cl)cc2Cl)c1=O,47 to 48 °C
22,CN1C(=O)N(c2c(Cl)cccc2Cl)Cc2cnc(NCCc3ccccc3)nc21,148 to 151 °C
23,CC(C)c1c(Br)ccc(N)c1C#N,82 to 85 °C
24,Clc1ccc(C2OC(c3ccncc3)=Nc3ccc(Cl)cc32)cc1 (centres undefined),140 to 141 °C
25,CCC1(CC)C(=O)N(C(C)(C)C)CC(C)(C)N1OC(=O)Nc1ccccc1,160 to 163 °C
26,CNc1nc(-c2ccc(OCc3ccccc3)cc2)no1,148 to 150 °C
